According to paper PMC9623576, “Semisynthesis and Evaluation of Anti-Inflammatory Activity of the Cassane-Type Diterpenoid Taepeenin F and of Some Synthetic Intermediates” (Journal of Natural Products, 2022):

How the values were obtained:
[1] = tested on: B16-F10 cells; assay: Annexin V-FITC/propidium iodide apoptosis flow cytometry; type: cell-based, murine; details: for apoptotic effect: B16-F10, after 24 h of treatment
From the text: Cytometric FACS analysis using annexin V-FITC and PI staining was used to differentiate four cell populations (Figure 5): normal cells (annexin V^– and PI^–), early apoptotic cells (annexin V^+ and PI^–), late apoptotic cells (annexin V^+ and PI^+), and necrotic cells (annexin V^– and PI^+).[33]
To confirm the proapoptotic effect of compounds 16 and 22, annexin V and PI double staining was detected with flow cytometry. An early indicator of apoptosis is the translocation of the membrane phospholipid phosphatidylserine from the cytoplasmic interface to the external surface of the plasmatic membrane. The phospholipid phosphatidylserine that accumulates on the external plasmatic membrane can be detected by annexin V/PI is a fluorescent dye that binds to the nuclei of dead cells. Apoptosis was assessed by flow cytometry using a FACScan (fluorescence-activated cell sorter) flow cytometer (Coulter Corporation, Hialeah, FL, USA).[37],[38] For this assay, 5 × 10^4 B16-F10 cells were plated in 24-well plates with 1.5 mL of medium and incubated for 24 h. […] Cells were collected and resuspended in a binding buffer (10 mM HEPES/NaOH, pH 7.4, 140 mM NaCl, 2.5 mM CaCl2). Annexin V-FITC conjugate (1 μg/mL) was then added and incubated for 15 min at room temperature in darkness. Just before the analysis by flow cytometry, cells were stained with 5 μL of 1 mg/mL PI solution. In each experiment, approximately 10 × 10^3 cells were analyzed, and the experiment was duplicated twice.

[2] = tested on: B16-F10 cells; assay: B16-F10 cell-cycle arrest and distribution, PI flow cytometry; type: cell-based, murine; details: B16-F10, 72 h
Experimental: The effects of the compounds 16 and 21 on the B16-F10 cell cycle were investigated using flow cytometry through propidium iodide staining. With this assay, we can determine a possible cytostatic effect related to the cytotoxic response and also measure DNA ploidy as well as alterations of cell-cycle profiles.[32]
The method used to quantify the amount of DNA in the different phases of the cell cycle (G0/G1, S, and G2/M) was performed by flow cytometry after propidium iodide staining (PI).[37] […] After treatment, the cells were washed twice with PBS, trypsinized, and resuspended in 1× TBS (10 mM Tris and 150 mM NaCl). After that, Vindelov buffer (100 mM Tris, 100 mM NaCl, 10 mg/mL Rnase, and 1 mg/mL PI, at pH 8) was added. Cells were stored on ice and, just before measurement, were stained with 20 μL of 1 mg/mL PI solution. Approximately, 10 × 10^3 cells were analyzed in each experiment. The experiments were performed three times with two replicates per assay. Finally, samples were analyzed using a flow cytometer, and the number of cells in each stage of the cell cycle was estimated by fluorescence-associated cell sorting (FACS) at 488 nm in an Epics XL flow cytometer (Coulter Corporation, Hialeah, FL, USA).

[3] = B16-F10, 48 h, IC50 concentration
[4] = B16-F10, 48 h, IC80 concentration
[5] = B16-F10, 72 h, IC50 concentration
[6] = B16-F10, 72 h, IC80 concentration

Compound	early apoptosis (Q4, annexin V+ PI-) [1, 3]	late apoptosis (Q2, annexin V+ PI+) [1, 3]	total apoptosis [1, 3]	early apoptosis (Q4, annexin V+ PI-) [1, 4]	late apoptosis (Q2, annexin V+ PI+) [1, 4]	total apoptosis [1, 4]	early apoptosis (Q4, annexin V+ PI-) [1, 5]	late apoptosis (Q2, annexin V+ PI+) [1, 5]	total apoptosis [1, 5]	early apoptosis (Q4, annexin V+ PI-) [1, 6]	late apoptosis (Q2, annexin V+ PI+) [1, 6]	total apoptosis [1, 6]	apoptotic effect [1]	cells in the G0/G1 phase ([2]; IC80 concentration)	cells in the S phase ([2]; IC80 concentration)	decrease of S phase cells compared to untreated control cells ([2]; IC80 concentration)	increase of G0/G1 cells over untreated control cells ([2]; IC80 concentration)	also measured
COC(=O)[C@]1(C)CCC[C@@]2(C)[C@H]1CC=C1C(C)=C(C(C)C)C(=O)C[C@@H]12 [Compound 16, (1R,4aR,10aR)-Methyl 7-isopropyl-1,4a,8-trimethyl-6-oxo-1,2,3,4,4a,4b,5,6,10,10a-decahydrophenanthrene-1-carboxylate]	3.73%	9.40%	13.13%	12.06%	14.53%	26.6%	0.06%	7.63%	7.7%	27.63%	21.13%	48.76%	did not exert a significant effect	76.36%	22.42%	16.79%	18.24%	–
COC(=O)[C@]1(C)CCC[C@]2(C)c3cc(O)c(C=O)c(C)c3CC[C@@H]12 [Compound 21, (1R,4aS,10aR)-Methyl 7-formyl-6-hydroxy-1,4a,8-trimethyl-1,2,3,4,4a,9,10,10a-octahydrophenanthrene-1-carboxylate]	6.93%	18.30%	25.23%	5.73%	27.13%	32.86%	5.33%	17.03%	22.36%	23.56%	17.66%	41.23%	did not exert a significant effect	70.55%	29.45%	9.76%	12.43%	cells in the G0/G1 phase ([2]; IC50 concentration): 71.87%; cells in the S phase ([2]; IC50 concentration): 27.95%; decrease of S phase cells compared to untreated control cells ([2]; IC50 concentration): 11.26%; increase of G0/G1 cells over untreated control cells ([2]; IC50 concentration): 13.75%
